Source: ChEMBL document CHEMBL6103622 (J Med Chem, 2025)
Activity calls are given as the source filed them. No cut-off for these calls is given here.

Tests used:
[1] = molecular target: Macrophage colony-stimulating factor 1 receptor (Homo sapiens, UniProt P07333); assay: Inhibition of CSF-1R (unknown origin)
[2] = molecular target: T1, Macrophage colony-stimulating factor 1 receptor (Mus musculus) (UniProt P09581); assay: Inhibition of CSF-1R signaling pathway activation in female C57BL/6 mouse BMDM cells assessed as reduction in CSF-1R phosphorylation at 100 nM preincubated with compounds for 4 hrs followed by M-CSF stimulation and measured after 30 mins by Western blot analysis; assay type: cell-based; conditions: time 4.5 hrs
T1 sequence (whole entry): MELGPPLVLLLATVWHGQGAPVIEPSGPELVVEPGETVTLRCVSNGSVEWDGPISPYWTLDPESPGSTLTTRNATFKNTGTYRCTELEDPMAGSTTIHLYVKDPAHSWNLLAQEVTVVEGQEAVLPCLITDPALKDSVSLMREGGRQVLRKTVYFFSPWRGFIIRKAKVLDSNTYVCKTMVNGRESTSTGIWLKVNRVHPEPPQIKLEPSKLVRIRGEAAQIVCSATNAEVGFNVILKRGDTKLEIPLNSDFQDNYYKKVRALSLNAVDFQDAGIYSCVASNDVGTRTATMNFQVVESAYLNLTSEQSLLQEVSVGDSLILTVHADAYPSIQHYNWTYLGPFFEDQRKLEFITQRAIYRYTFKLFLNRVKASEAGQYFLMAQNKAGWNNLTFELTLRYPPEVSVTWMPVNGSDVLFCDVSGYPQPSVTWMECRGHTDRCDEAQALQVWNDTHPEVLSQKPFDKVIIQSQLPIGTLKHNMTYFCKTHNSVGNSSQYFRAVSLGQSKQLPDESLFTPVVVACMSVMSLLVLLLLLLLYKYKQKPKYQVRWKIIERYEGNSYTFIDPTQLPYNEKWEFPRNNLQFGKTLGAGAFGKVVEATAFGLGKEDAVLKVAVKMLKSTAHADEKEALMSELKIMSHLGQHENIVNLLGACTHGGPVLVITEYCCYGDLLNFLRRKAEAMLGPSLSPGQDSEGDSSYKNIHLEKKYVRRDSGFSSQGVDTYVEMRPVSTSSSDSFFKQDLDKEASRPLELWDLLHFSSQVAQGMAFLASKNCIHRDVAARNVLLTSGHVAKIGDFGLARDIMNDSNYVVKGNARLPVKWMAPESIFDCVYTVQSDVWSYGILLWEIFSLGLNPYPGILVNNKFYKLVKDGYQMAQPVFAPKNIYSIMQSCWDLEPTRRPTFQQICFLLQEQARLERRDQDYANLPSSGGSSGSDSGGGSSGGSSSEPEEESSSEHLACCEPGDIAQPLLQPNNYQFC

[3] = molecular target: T1, Macrophage colony-stimulating factor 1 receptor (Mus musculus); assay: Inhibition of CSF-1R signaling pathway activation in female C57BL/6 mouse BMDM cells assessed as reduction in CSF-1R phosphorylation at Tyr723 residue at 100 nM preincubated with compounds for 4 hrs followed by M-CSF stimulation and measured after 30 mins by Western blot analysis; assay type: cell-based; conditions: time 4.5 hrs
[4] = molecular target: T1, Macrophage colony-stimulating factor 1 receptor (Mus musculus); assay: Inhibition of CSF-1R signaling pathway activation in female C57BL/6 mouse BMDM cells assessed as reduction in AKT phosphorylation at Ser473 residue at 100 nM preincubated with compounds for 4 hrs followed by M-CSF stimulation and measured after 30 mins by Western blot analysis; assay type: cell-based; conditions: time 4.5 hrs
MC-38 [5] = assay: Induction of apoptosis in mouse MC38 cells cocultured with condition medium of M2 macrophages assessed as early apoptotic cells at 100 nM by Annexin V/PI staining based flow cytometric analysis (reference value: 3.16 %); assay type: functional
MC-38 [6] = assay: Induction of apoptosis in mouse MC38 cells cocultured with condition medium of M2 macrophages assessed as late apoptotic cells at 100 nM by Annexin V/PI staining based flow cytometric analysis (reference value: 1.66 %); assay type: functional
MC-38 [7] = assay: Induction of apoptosis in mouse MC38 cells assessed as early apoptotic cells at 100 nM by Annexin V/PI staining based flow cytometric analysis (reference value: 1.91 %); assay type: functional
MC-38 [8] = assay: Induction of apoptosis in mouse MC38 cells assessed as late apoptotic cells at 100 nM by Annexin V/PI staining based flow cytometric analysis (reference value: 0.85 %); assay type: functional

Sequence of Macrophage colony-stimulating factor 1 receptor (P07333 whole entry): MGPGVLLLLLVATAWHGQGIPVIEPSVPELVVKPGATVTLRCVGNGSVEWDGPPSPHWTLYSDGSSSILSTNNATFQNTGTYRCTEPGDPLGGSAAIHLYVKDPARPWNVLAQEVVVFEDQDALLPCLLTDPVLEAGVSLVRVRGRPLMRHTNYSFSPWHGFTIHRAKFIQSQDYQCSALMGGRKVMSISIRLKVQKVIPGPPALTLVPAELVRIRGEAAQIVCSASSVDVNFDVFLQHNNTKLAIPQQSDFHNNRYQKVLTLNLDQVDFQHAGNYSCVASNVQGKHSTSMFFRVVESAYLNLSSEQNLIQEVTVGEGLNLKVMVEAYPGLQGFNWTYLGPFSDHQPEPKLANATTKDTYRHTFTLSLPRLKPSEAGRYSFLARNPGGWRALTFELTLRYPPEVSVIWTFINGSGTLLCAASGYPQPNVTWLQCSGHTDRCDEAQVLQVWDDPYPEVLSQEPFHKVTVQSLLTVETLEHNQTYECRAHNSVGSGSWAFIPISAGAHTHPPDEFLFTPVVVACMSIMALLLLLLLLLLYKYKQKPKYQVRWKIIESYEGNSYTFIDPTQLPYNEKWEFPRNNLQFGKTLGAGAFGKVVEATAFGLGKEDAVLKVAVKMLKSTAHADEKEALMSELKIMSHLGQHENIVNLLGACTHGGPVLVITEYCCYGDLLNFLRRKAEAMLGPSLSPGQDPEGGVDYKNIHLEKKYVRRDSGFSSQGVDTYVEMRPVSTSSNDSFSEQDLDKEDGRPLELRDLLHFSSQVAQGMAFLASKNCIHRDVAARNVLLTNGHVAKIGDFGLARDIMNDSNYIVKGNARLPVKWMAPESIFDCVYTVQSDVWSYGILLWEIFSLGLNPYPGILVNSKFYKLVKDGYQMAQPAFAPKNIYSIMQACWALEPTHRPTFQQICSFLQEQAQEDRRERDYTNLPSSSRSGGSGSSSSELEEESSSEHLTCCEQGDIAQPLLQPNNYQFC

Compound | IC50 [1] | further results
Cc1nc(NC(=O)Nc2ccc(C(F)(F)F)cc2)ccc1Oc1c[nH]c2ncc(Cl)cc12 | 48.9 nM | 
FC(F)(F)c1ccc(Nc2nc3ccc(Oc4c[nH]c5ncc(Cl)cc45)cc3s2)cc1 | 56.5 nM | 
O[C@@H]1CCCC[C@H]1Nc1nc2ccc(Oc3c[nH]c4ncc(F)cc34)cc2s1 | 30.6 nM | inhibition [2]: Active; Weak Inhibitory Effect Observed
Cc1nc(NC(=O)Nc2ccc(N3CCN(C)CC3)cc2)ccc1Oc1c[nH]c2ncc(Cl)cc12 | 593 nM | 
Cc1nc(NC(=O)Nc2ccc(F)cc2)ccc1Oc1c[nH]c2ncc(Cl)cc12 | 85.6 nM | 
Cc1nc(NC(=O)NCc2ccc(C(F)(F)F)nc2)ccc1Oc1c[nH]c2ncc(Cl)cc12 | 406 nM | 
Cc1nc(NC(=O)Nc2ccc(C(F)(F)F)nc2)ccc1Oc1c[nH]c2ncc(Cl)cc12 | 152 nM | 
Cc1nc(NC(=O)Nc2cc(C(C)(C)C)no2)ccc1Oc1c[nH]c2ncc(Cl)cc12 | > 1000 nM | 
COc1cc(NC(=O)Nc2ccc(Oc3c[nH]c4ncc(Cl)cc34)c(C)n2)ccc1C(F)(F)F | 131 nM | 
O[C@@H]1CCCC[C@H]1Nc1nc2ccc(Oc3c[nH]c4nccc(F)c34)cc2s1 | 41.4 nM | 
Cc1nc(NC(=O)Nc2cccc(Cl)c2)ccc1Oc1c[nH]c2ncc(Cl)cc12 | 34.6 nM | inhibition [3]: Active; Minimal Effect Observed; inhibition [4]: Active; Minimal Effect Observed
Cc1nc(NC(=O)Nc2cccc(C(F)(F)F)c2)ccc1Oc1c[nH]c2ncc(Cl)cc12 | 372 nM | 
O=C(Nc1ccc(Oc2c[nH]c3ncc(Cl)cc23)cc1)N[C@@H]1CCCC[C@H]1O | 43.5 nM | 
COc1cc(NC(=O)Nc2ccc(Oc3c[nH]c4ncc(Cl)cc34)c(C)n2)cc(OC)c1OC | 23.8 nM | inhibition [3]: Active; Minimal Effect Observed; inhibition [4]: Active; Minimal Effect Observed
O[C@@H]1CCCC[C@H]1Nc1nc2ccc(Oc3c[nH]c4ncc(Cl)cc34)cc2s1 | 25.8 nM | inhibition [2]: Active; Weak Inhibitory Effect Observed
OC[C@H](Nc1nc2ccc(Oc3c[nH]c4ncc(Cl)cc34)cc2s1)C1CCCCC1 | > 1000 nM | 
FC(F)(F)c1ccc(CNc2ccc(Cc3c[nH]c4ncc(Cl)cc34)cn2)cn1 [PEXIDARTINIB] |  | Activity (MC-38 [5]): 8.49%; Activity (MC-38 [6]): 2.25%; Activity (MC-38 [7]): 1.8%; Activity (MC-38 [8]): 0.83%
O[C@@H]1CCCC[C@H]1Nc1nc2ccc(Cc3c[nH]c4ncc(Cl)cc34)cc2s1 | 49.4 nM | inhibition [2]: Active; Weak Inhibitory Effect Observed
Cc1nc(NC(=O)Nc2ccc(C(C)(C)C)c(Cl)c2)ccc1Oc1c[nH]c2ncc(Cl)cc12 | > 1000 nM | 
